Assay results: ChEMBL document CHEMBL1201862, “PubChem BioAssay data set” (2004)
The source made the active and inactive calls.

Legend:
[1] = viability of HCT116 lacking mutant beta-catenin – cell-based, human colon tumor, dose response (AID 1045); type: functional;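 also: HCT116 colon tumor cells with beta catenin knocked out; cells exposed to compound for 60 hours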
[2] = viability of PTEN-deleted HCT116 cells – cell-based, HCT116 PTEN knockout, dose response (AID 1047); type: functional;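 also: HCT116 colon tumor cells with PTEN knocked out; cells exposed to compound for 60 hours before readout; potency for loss of cell viability measured by luminescence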
[3] = system: H9c2; assay: cells; type: functional, cell-based; details: Rattus norvegicus, H9c2, Myocardium;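 also: confirmatory concentration-response retest of ultra-high-throughput screening hits for modulation of myocardial damage; cell death induced by hydrogen peroxide oxidative stress; compound pretreatment for 60 min then peroxide exposure for 2 h; potency is for protecting the cells against peroxide damage rather than for killing them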
[4] = cells; type: functional, cell-based
[5] = cells; type: functional, cell-based; remark: listed apart in the source
[6] = fluconazole-exposed Candida albicans growth modulators – fluorescence, retest, confirmation (AID 2467); type: functional, cell-based
[7] = NIH-3T3 fibroblast cytotoxicity, dose response, cytotoxicity control, cell-based, fluorescence, Alamar Blue, secondary assay (AID 2327); type: functional;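 also: NIH-3T3 mouse fibroblasts cultured with fluconazole at 8 µg/mL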
[8] = target: Cytochrome P450 2C9 (Homo sapiens, UniProt P11712)
Cytochrome P450 2C9, sequence (P11712 whole entry): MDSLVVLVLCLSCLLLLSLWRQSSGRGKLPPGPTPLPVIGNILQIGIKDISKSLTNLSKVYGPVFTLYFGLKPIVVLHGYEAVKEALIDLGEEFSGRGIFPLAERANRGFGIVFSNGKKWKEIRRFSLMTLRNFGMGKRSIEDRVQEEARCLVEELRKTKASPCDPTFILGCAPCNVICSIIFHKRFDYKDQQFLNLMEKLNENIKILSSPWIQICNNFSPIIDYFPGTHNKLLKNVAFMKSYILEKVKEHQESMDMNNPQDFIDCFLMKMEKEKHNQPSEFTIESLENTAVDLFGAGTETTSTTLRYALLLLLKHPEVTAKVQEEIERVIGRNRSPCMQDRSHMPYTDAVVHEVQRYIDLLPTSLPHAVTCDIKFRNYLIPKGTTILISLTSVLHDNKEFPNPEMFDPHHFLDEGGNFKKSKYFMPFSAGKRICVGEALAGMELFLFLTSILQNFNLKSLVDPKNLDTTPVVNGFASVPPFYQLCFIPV

[9] = target: Cytochrome P450 3A4 (Homo sapiens, UniProt P08684);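 also: CYP3A4 tested as one member of a cytochrome P450 panel screen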
Cytochrome P450 3A4, sequence (P08684 whole entry): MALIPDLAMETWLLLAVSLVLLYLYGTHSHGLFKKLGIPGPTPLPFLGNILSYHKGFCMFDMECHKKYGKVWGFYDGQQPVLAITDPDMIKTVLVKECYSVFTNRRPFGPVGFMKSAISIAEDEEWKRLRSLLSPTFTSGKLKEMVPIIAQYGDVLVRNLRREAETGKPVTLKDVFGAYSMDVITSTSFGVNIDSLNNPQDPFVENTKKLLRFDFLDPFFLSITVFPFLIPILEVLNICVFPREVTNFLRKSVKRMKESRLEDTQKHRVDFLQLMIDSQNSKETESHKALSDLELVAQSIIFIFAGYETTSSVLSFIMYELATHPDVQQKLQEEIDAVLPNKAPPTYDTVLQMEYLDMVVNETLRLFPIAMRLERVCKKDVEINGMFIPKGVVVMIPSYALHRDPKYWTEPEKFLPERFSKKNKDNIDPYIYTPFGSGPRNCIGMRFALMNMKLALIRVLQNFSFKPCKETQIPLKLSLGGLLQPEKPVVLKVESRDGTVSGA

[10] = target: Cytochrome P450 2D6 (Homo sapiens, UniProt P10635);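 also: CYP2D6 member of a cytochrome P450 panel assay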
Cytochrome P450 2D6, sequence (P10635 whole entry): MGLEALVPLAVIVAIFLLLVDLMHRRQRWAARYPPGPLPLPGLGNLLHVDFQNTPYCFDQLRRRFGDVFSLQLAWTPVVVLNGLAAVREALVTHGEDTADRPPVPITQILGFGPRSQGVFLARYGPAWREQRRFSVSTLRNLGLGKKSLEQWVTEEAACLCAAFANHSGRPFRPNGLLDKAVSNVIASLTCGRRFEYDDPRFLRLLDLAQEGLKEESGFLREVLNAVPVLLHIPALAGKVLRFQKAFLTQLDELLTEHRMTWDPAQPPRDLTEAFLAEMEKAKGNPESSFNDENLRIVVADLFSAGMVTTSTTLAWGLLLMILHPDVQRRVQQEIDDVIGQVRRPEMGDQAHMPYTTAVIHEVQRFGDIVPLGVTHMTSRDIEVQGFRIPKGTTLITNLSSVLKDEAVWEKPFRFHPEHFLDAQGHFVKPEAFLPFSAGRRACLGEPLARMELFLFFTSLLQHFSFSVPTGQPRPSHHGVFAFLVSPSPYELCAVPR

[11] = target: T1, Cytochrome P450 1A2 (Homo sapiens, UniProt P05177);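 also: PubChem cytochrome P450 panel assay, CYP1A2 panel member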
T1 sequence (P05177 whole entry): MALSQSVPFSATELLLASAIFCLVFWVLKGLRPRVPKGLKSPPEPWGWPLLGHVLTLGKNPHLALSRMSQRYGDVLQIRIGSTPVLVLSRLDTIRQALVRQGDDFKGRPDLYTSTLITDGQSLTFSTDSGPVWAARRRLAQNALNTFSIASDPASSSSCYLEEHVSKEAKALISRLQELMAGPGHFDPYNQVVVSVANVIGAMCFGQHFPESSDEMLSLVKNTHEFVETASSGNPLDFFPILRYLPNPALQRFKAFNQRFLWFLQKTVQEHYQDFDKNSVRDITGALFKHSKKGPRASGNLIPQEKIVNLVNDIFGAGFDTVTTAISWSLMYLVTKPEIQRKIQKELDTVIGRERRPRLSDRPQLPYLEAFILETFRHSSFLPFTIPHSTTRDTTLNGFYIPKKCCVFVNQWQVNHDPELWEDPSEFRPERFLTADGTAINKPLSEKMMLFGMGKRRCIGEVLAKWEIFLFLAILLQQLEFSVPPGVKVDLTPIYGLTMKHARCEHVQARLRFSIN

[12] = target: Paired box protein Pax-8 (Homo sapiens, UniProt Q06710); assay: PAX8 transcriptional activity inhibition in RMG-I – RMG-I cells, luciferase, cherry-pick, dose response (AID 687027); type: functional, cell-based;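 also: luciferase reporter driven by Pax8 target thyroperoxidase promoter measured by SteadyGlo luminescence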
Paired box protein Pax-8, sequence (Q06710 whole entry): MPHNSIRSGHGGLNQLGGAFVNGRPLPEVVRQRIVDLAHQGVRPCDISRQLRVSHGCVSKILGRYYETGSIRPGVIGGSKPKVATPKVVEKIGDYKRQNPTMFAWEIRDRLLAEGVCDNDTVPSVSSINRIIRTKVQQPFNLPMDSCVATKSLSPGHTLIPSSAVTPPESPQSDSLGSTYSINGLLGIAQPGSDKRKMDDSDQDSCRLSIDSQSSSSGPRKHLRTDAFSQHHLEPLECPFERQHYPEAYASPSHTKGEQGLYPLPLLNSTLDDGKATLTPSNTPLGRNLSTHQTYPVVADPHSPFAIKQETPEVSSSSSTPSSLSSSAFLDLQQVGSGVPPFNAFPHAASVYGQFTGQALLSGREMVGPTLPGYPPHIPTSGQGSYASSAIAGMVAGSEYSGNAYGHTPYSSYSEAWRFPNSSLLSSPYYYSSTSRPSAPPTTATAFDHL

[13] = Luminescence Cell-Based Dose Retest to Confirm Inhibitors of Cancer Stem Cells. [Related pubchem assays (depositor defined):AID2717, AID2721]; type: functional; details: Homo sapiens
[14] = microbe, parasite or virus in culture; type: functional; details: Mycobacterium tuberculosis
[15] = target: Cytochrome P450 2C19 (Homo sapiens, UniProt P33261); assay: Cytochrome panel assay with activity outcomes. Panel member name: p450-cyp2c19 Compounds with AC50 equal or less than 10 uM are considered active; type: functional; details: read-out: AC50
Cytochrome P450 2C19, sequence (P33261 whole entry): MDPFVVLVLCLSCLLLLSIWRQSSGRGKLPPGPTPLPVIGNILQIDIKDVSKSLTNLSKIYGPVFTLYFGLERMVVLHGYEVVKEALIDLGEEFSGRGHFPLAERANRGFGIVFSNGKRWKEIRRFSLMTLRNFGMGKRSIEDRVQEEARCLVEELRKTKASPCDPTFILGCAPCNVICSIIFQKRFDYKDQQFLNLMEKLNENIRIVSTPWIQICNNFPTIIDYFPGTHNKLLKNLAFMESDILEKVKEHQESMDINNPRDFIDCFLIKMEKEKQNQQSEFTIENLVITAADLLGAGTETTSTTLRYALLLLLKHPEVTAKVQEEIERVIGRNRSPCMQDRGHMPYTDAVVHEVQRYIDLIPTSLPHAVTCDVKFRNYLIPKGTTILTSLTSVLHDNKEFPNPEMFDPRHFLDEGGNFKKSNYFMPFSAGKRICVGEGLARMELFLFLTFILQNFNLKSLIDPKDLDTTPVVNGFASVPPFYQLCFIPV

[16] = system: INS1; assay: INS-1E survival protection against cytokine death – cell-based, luminescence, retest, dose response (AID 449756); type: functional; details: Rattus norvegicus;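 also: cell death triggered by IL-1 beta plus TNF-alpha plus IFN-gamma mixture; protective hits raise ATP signal compared with cytokine alone wells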
[17] = Luminescence Cell-Based Dose Response HTS to Identify Inhibitors of 5'UTR Stem-Loop Driven Prion Protein mRNA Translation in H4 Neuroglioblastoma Cells. [Related pubchem assays: 1827 (Project Summary), 1813 (Primary HTS)]; type: functional
[18] = alpha-synuclein stem-loop luciferase translation blockers – H4 neuroglioma cells, luminescence, confirmation (AID 1988); type: functional, cell-based
[19] = luciferase reporter signal suppression in cells – H4 neuroglioma cells, luminescence, dose response (AID 1990); type: functional, cell-based
[20] = Luminescence Cell-Based Dose Response HTS to Identify Activators of Luciferase Translation or Activity in H4 […] Cells. [Related pubchem assays: 1829 (Project Summary), 1814 (Primary HTS)]; type: functional
[21] = system: H4; assay: Luminescence Cell-Based Dose Response HTS to Identify Activators of 5'UTR Stem-Loop Driven Prion Protein mRNA Translation in H4 Neuroglioblastoma Cells. [Related pubchem assays: 1829 (Project Summary), 1814 (Primary HTS)]; type: functional; details: Homo sapiens

## O=C(Nc1ccc(F)cc1)c1cnc(-c2ccccc2)nc1-c1ccccc1
[1]
  EC50: 9.24 µM (active)
[2]
  EC50: 10 µM (active)

## Nc1c(C(=O)NC2CCCC2)c2nc3ccccc3nc2n1N
[3]
  IC50: > 79 µM (inactive)

## COc1ccc(C(=O)CSc2nncn2C)cc1
[4]
  EC50: > 350 µM (not active)
[5]
  EC50: > 350 µM (not active)

## CCN(CC)S(=O)(=O)c1cc(-c2nnc(-c3ccc(Br)cc3)o2)ccc1Cl
[1]
  EC50: 21.5 µM (active)
[2]
  EC50: 28.1 µM (active)

## c1ccc(-c2ccccc2OCCCN2CCCCCC2)cc1
[6]
  EC50: > 38 µM (not active)
[7]
  EC50: > 150 µM (inactive)

## CSc1nc2ccccc2cc1/C=C(\C#N)c1cccc(C)c1
[8]
  AC50: 31.6 µM (inconclusive)
[9]
  AC50: 25.1 µM (inconclusive)
[10]
  AC50: 6.31 µM (inconclusive)

## CCC(=O)Oc1ccc2c(C)cc(=O)oc2c1C
[3]
  IC50: 74.2 µM (inactive)

## CCn1c(C)cc(/C=C2\SC(=O)N(CC(=O)Nc3ccc(C)c(C)c3)C2=O)c1C
[8]
  AC50: 1.58 µM (inconclusive)
[1]
  EC50: 24.1 µM (active)
[2]
  EC50: 210 µM (active)
[9]
  AC50: 1 µM (inconclusive)
[11]
  AC50: 8.91 µM (inconclusive)

## CC(C)[C@H](NC(=O)c1ccco1)C(=O)OCc1cc(=O)n2c(n1)sc1ccccc12
[4]
  EC50: > 350 µM (not active)
[5]
  EC50: > 350 µM (not active)

## O=C(Oc1ccccc1)N1CCC2(CC1)CCN(c1ccncc1)CC2
[8]
  AC50: 20 µM (inconclusive)
[10]
  AC50: 39.8 µM (inconclusive)

## COc1cc(C(=O)Nc2cc3c(cc2N2CCCCC2)n(C)c(=O)n3C)cc(OC)c1OC
[3]
  IC50: 8.81 µM (active)

## COCc1nnc(NC(=O)c2ccc(S(=O)(=O)N3CCCCCC3)cc2)o1
[7]
  EC50: > 160 µM (inactive)

## Cc1cccc(NC(=O)CC23CC4CC(C2)CC(n2nnc(C)n2)(C4)C3)c1
[12]
  AC50: 37.1 µM (active)

## COC(=O)c1ccc(/C=C/c2c(-c3ccsc3)oc3ccc(N4CCOCC4)cc23)cc1
[13]
  AC50: 3.33 µM (active)
[14]
  CC50: > 40 µM (active)

## CCN1CCN(c2nc3ccccc3nc2C(C#N)C(=O)OC2CCCCC2)CC1 (stereo not given)
[8]
  AC50: 39.8 µM (inconclusive)
[15]
  AC50: 39.8 µM (inconclusive)
[10]
  AC50: 28.2 µM (inconclusive)

## c1ccc(CSc2nnc(-c3cccs3)n2Cc2ccco2)cc1
[6]
  EC50: > 38 µM (not active)
[7]
  EC50: > 150 µM (inactive)

## CC(OC(=O)COc1ccc(Nc2ccccc2)cc1)C(=O)N(C)c1ccccc1 (stereo not given)
[4]
  EC50: > 350 µM (not active)
[5]
  EC50: 30.5 µM (active)

## Cc1ccc2c(c1)C1NC(S)=NC(C)(O2)C1C(=O)Nc1ccc(Cl)cc1 (stereo not given)
[4]
  EC50: > 350 µM (not active)
[5]
  EC50: > 350 µM (not active)

## Cc1noc(C)c1-c1nc(N(C)C)c2ccccc2n1
[15]
  AC50: 25.1 µM (inconclusive)
[9]
  AC50: 15.8 µM (inconclusive)
[10]
  AC50: 20 µM (inconclusive)

## CCc1cc2c(=O)c(-c3ccc4c(c3)OCCO4)coc2cc1OS(C)(=O)=O
[1]
  EC50: 18 µM (active)
[2]
  EC50: 14.6 µM (active)

## CCOCCCNS(=O)(=O)c1ccc(NC(=O)N2c3ccccc3Sc3ccccc32)cc1
[14]
  CC50: 36.6 µM (active)

## O=c1[nH]c(=O)n(Cc2ccccc2)c2nc(-c3ccc(Oc4ccc(F)cc4)c([N+](=O)[O-])c3)n(CCO)c12
[1]
  EC50: 8.03 µM (active)
[2]
  EC50: 7.51 µM (active)
[14]
  CC50: 13.9 µM (active)

## O=C1/C(=C\c2cccnc2)CN(Cc2ccccc2)C/C1=C\c1cccnc1
[1]
  EC50: 0.429 µM (active)
[16]
  AC50: 4.87 µM (active)
[13]
  AC50: 2.06 µM (active)
[2]
  EC50: 1.29 µM (active)

## COc1ccc(CNS(=O)(=O)c2cc3c4c(c2)C(C)C(=O)N4CCC3)cc1 (stereo not given)
[4]
  EC50: > 350 µM (not active)
[5]
  EC50: > 350 µM (not active)

## COc1ccc(COc2cc(-c3cccc(OC)c3)nc3ccc(NC(=O)c4cccnc4)cc23)cc1
[3]
  IC50: > 79 µM (inactive)

## CN1CCN(C2Cc3ccc(F)cc3Sc3cc(F)c(Cl)cc32)CC1 (stereo not given)
[17]
  EC50: > 120 µM (not active)
[4]
  EC50: > 350 µM (not active)
[13]
  AC50: 6.08 µM (active)
[5]
  EC50: 20.1 µM (active)
[18]
  EC50: > 60 µM (not active)
[19]
  EC50: > 120 µM (not active)

## CCOC(=O)c1cnc2ccc(C(=O)OC)cc2c1NCCc1ccc(OC)c(OC)c1
[3]
  IC50: > 79 µM (inactive)

## O=C(COC(=O)c1ccccc1[N+](=O)[O-])c1ccc2c(c1)OCO2
[20]
  EC50: > 120 µM (not active)
[21]
  EC50: 36 µM (active)

## CCOC(=O)c1c(NC(=O)CN2CCN(C(=O)c3ccco3)CC2)sc2c1CCCC2
[1]
  EC50: 28.7 µM (active)
[6]
  EC50: > 38 µM (not active)
[7]
  EC50: > 150 µM (inactive)
[2]
  EC50: 35.1 µM (active)

## CC(C)n1cnc2c(NCc3ccccc3)cc(Cc3ccc(F)cc3)cc21
[13]
  AC50: 1.78 µM (active)
[14]
  CC50: > 40 µM (active)

## COC(=O)c1[nH]c2c(c1C)C(=O)CC(c1cc(OC)ccc1OC)C2 (stereo not given)
[3]
  IC50: > 79 µM (inactive)

## O=C(CCc1nnc(-c2ccccc2)o1)c1ccc(Cl)cc1
[4]
  EC50: > 350 µM (not active)

## Cc1ccccc1NC(=O)COC(=O)CCc1nc(O)c2ccccc2n1
[3]
  IC50: 10.1 µM (active)

## CCN(C[C@H]1N[C@@](CC)(C(=O)OC)[C@H]2C(=O)N(Cc3ccccc3)C(=O)[C@@H]12)S(=O)(=O)c1ccc(F)cc1
[3]
  IC50: 13.9 µM (active)

## CC(=O)c1cccc(-c2cnc3c(NC=O)cc(-c4ccc(F)cc4)cn23)c1
[3]
  IC50: > 79 µM (inactive)

## COc1nc(N/N=C/c2cc3c(cc2Br)OCO3)nc(N2CCOCC2)n1
[3]
  IC50: > 79 µM (inactive)

## COc1cc(/C=N/NC(=O)c2ccncc2)ccc1OCC(=O)Nc1ccc(C)c(C)c1
[3]
  IC50: > 79 µM (inactive)

## C[C@H]1CCCCO[C@@H](CN(C)C(=O)Nc2ccc(C(F)(F)F)cc2)[C@@H](C)CN([C@@H](C)CO)C(=O)c2cc(NS(=O)(=O)c3cn(C)cn3)ccc2O1
[12]
  AC50: 17.9 µM (active)

## CCCC(=O)Nc1ccc2c(c1)C(=O)N(C)C[C@@H](OC)[C@H](C)CN(Cc1ccc(-c3ccccn3)cc1)[C@H](C)CO2
[12]
  AC50: 28.7 µM (active)

## C[C@@H]1CN([C@H](C)CO)C(=O)c2cc(NC(=O)Nc3ccc(C(F)(F)F)cc3)ccc2O[C@@H](C)CCCCO[C@H]1CN(C)C(=O)Nc1ccc(F)cc1
[12]
  AC50: 1.41 µM (active)

## Cc1nnc(S)n1/N=C/c1cccc(OCc2ccccc2)c1
[14]
  CC50: > 40 µM (active)

## Cc1oc(-c2ccc(Cl)cc2)cc1/C(O)=C(C#N)/C=N/c1cccc(OC(F)(F)F)c1
[4]
  EC50: > 350 µM (not active)
[5]
  EC50: > 350 µM (not active)
